Experimental data: patent US8101170B2, “Probiotic health or fitness promoting human or animal foodstuff and/or drinking water additive and use thereof” (Erber Aktiengesellschaft, priority 2005, dated 2012)
Where “and” joins values, the source holds several entries; their conditions need not be identical. Identical values can stand only once. Like-named read-outs stand apart in the source and are kept apart here.

Legend:
Type in all cases: cell-based
[1] = system: Salmonella choleraesuis; assay: Agar plate assay, inhibition of pathogenic germs by CE test germs
[2] = system: Campylobacter jejuni; assay: as above
[3] = system: Clostridium perfringens
[4] = system: E. coli; assay: Agar plate assay, inhibition of pathogenic germs by CE test germs

Substance | inhibition zone to test germ ratio, Salmonella choleraesuis ([1]; MRS agar) | inhibition zone to test germ ratio, Campylobacter jejuni ([2]; MRS agar) | inhibition zone to test germ ratio, Clostridium perfringens [3] | inhibition zone to test germ ratio, E. coli [4] | inhibition zone to test germ ratio, Salmonella choleraesuis [1] | inhibition zone to test germ ratio, Campylobacter jejuni [2]
Bifidobacterium animalis [DSM 20104] | 0.65 | 0.31 | 1.42 |  |  | 
Lactobacillus reuteri [DSM 20016] | 1.20 | 1.35 | 1.54 |  |  | 
Lactobacillus salivarius [DSM 20555] | 1.09 | 1.41 | 1.63 |  |  | 
Lactobacillus reuteri [DSM 16350] | 1.60 | 1.36 | 2.12 |  |  | 
Pediococcus acidilactici [DSM 20284] | 1.10 | 1.32 | 1.35 |  |  | 
Lactobacillus salivarius ssp. salivarius [DSM 16351] | 1.46 | 1.50 | 2.05 |  |  | 
Enterococcus faecium [NCIMB 10415] |  |  | 1.31 | 1.37 and 1.35 | 1.20 | 1.22
Enterococcus faecium [DSM 16211] | 1.37 | 1.28 | 1.43 |  |  | 
